# Measurements reported in patent publication US20250099491A1, “PREVENTION OR TREATMENT OF CARDIOVASCULAR DISEASES WITH HIGH PENETRATION PRODRUGS OF ASPIRIN AND OTHER NSAIDS” (Techfields Inc., priority 2022, published 2025).
# Test system: myocardial infarction in minipigs
# Assay: Example 20: myocardial infarction efficacy study in minipigs (circumflex coronary artery thrombosis)
# Format: in vivo, minipig
# Details: twice a day; for infarct volume (myocardial): 28 days after MCA thrombosis
# Description: Total 24 male minipigs were used for this study. […] The minipigs were already quarantined and acclimated. Before animal being transferred from holding colony, a physical examination was performed and the acceptability of the animals for the study was evaluated by veterinary. […] [table] […] Under anesthesia, thoracotomy was carried out and the circumflex coronary artery of the heart was exposed. The circumflex coronary artery thrombosis was induced by photochemical reaction. […] Photoirradiation was continued for a 30 min. […] After cutting the femoral artery, thoracotomy was carried out and the heart was removed. […] TTC regent for 5 min. After staining with TTC reagent, the photograph of the heart 5 blocks was taken. All blocks were immersed in 10% formalin neutral buffer solution. The 2nd block appeared large necrotic area was cut sections (thickness: 7-8 μm). Slice was stained with H & E reagent. […] The infarct lesions were defined as a necrotic portion of TTC stained blocks. […] The histopathological alteration (necrosis, inflammation, granulation, etc.) of myocardial infarction was examined using H & E stained slides.
# [1] = high dose 30 mg/kg/time transdermal
# [2] = low dose 15 mg/kg/time transdermal
compound,measurement,setting,value
CCN(CC)CCOC(=O)c1ccccc1OC(C)=O.Cl [Compound-1],degeneration of myocardium and myocardial necrosis (histopathology),[1],slight
same,infarct volume (myocardial),[1],138 mm^3
same,degeneration of myocardium and myocardial necrosis (histopathology),[2],slight
same,infarct volume (myocardial),[2],177 mm^3
